Patent US7427601B2, “Method for treating tremor” (Schwarz Pharma AG, priority 2004, dated 2008)

System: harmaline-induced tremors
Experiment: Harmaline-induced tremors in rats
Type: in vivo, Male Sprague-Dawley rats
Details: for Intensity of tremors after harmaline administration (score), Mean ± S.E.M.: scale 0 to 4
Experimental: Male Sprague-Dawley rats (Charles River Laboratories, France) were used. During the acclimatization period, animals were housed 2 per cage, in Makrolon type III cages, in the animal room (temperature: 20±2° C., humidity: minimum 45%, air changes: >12 per hour, light/dark cycle of 12 h/12 h [on at 7:00 A.M.]). Animals were allowed a minimum of 5 days period before experiment for acclimatization.
Harmaline HCl (Sigma) was diluted in saline and injected at 20 mg/kg, i.p. The reference compound, propanolol was injected i.p. at 20 mg/kg, 30 min before harmaline administration. SPM 927 was given i.p. at 3, 10 and 30 mg/kg, 30 min before harmaline administration.
The following parameters were assessed by an observer blind to the treatment of the animals. • Intensity: from 0 to 4 (0: no tremor, 1: mild tremor, 2: moderate intermittent tremor, 3: moderate persistent tremor, 4: pronounced severe tremor). Intensity will be scored every 30 min and for a total period of 120 min after harmaline administration. • Latency of onset • Total duration of tremor (max observation time: 120 min) • % rat displaying tremor

## CC(C)NCC(O)COc1cccc2ccccc12 (stereo not shown) [Propranolol, reference compound]
20 mg/kg i.p. 30 min before harmaline (20 mg/kg i.p.), +30 min
  Intensity of tremors after harmaline administration (score), Mean ± S.E.M.: 1.6 ± 0.2 score
20 mg/kg i.p. 30 min before harmaline (20 mg/kg i.p.), +60 min
  Intensity of tremors after harmaline administration (score), Mean ± S.E.M.: 2.3 ± 0.3 score
20 mg/kg i.p. 30 min before harmaline (20 mg/kg i.p.), +90 min
  Intensity of tremors after harmaline administration (score), Mean ± S.E.M.: 1.6 ± 0.3 score
20 mg/kg i.p. 30 min before harmaline (20 mg/kg i.p.), +120 min
  Intensity of tremors after harmaline administration (score), Mean ± S.E.M.: 1.4 ± 0.3 score
20 mg/kg, each time-point of observation
  intensity of tremors (in words): reduced the intensity of tremors in a statistically significant manner

## COC[C@@H](NC(C)=O)C(=O)NCc1ccccc1 [SPM 927, (R)-2-acetamide-N-benzyl-3-methoxypropionamide]
3 mg/kg i.p. 30 min before harmaline (20 mg/kg i.p.), +30 min
  Intensity of tremors after harmaline administration (score), Mean ± S.E.M.: 2.0 ± 0.4 score
3 mg/kg i.p. 30 min before harmaline (20 mg/kg i.p.), +60 min
  Intensity of tremors after harmaline administration (score), Mean ± S.E.M.: 2.0 ± 0.3 score
3 mg/kg i.p. 30 min before harmaline (20 mg/kg i.p.), +90 min
  Intensity of tremors after harmaline administration (score), Mean ± S.E.M.: 2.1 ± 0.4 score
3 mg/kg i.p. 30 min before harmaline (20 mg/kg i.p.), +120 min
  Intensity of tremors after harmaline administration (score), Mean ± S.E.M.: 1.8 ± 0.4 score
10 mg/kg i.p. 30 min before harmaline (20 mg/kg i.p.), +30 min
  Intensity of tremors after harmaline administration (score), Mean ± S.E.M.: 2.0 ± 0.2 score
10 mg/kg i.p. 30 min before harmaline (20 mg/kg i.p.), +60 min
  Intensity of tremors after harmaline administration (score), Mean ± S.E.M.: 1.1 ± 0.3 score
10 mg/kg i.p. 30 min before harmaline (20 mg/kg i.p.), +90 min
  Intensity of tremors after harmaline administration (score), Mean ± S.E.M.: 2.2 ± 0.4 score
10 mg/kg i.p. 30 min before harmaline (20 mg/kg i.p.), +120 min
  Intensity of tremors after harmaline administration (score), Mean ± S.E.M.: 1.3 ± 0.3 score
30 mg/kg i.p. 30 min before harmaline (20 mg/kg i.p.), +30 min
  Intensity of tremors after harmaline administration (score), Mean ± S.E.M.: 0.9 ± 0.4 score
30 mg/kg i.p. 30 min before harmaline (20 mg/kg i.p.), +60 min
  Intensity of tremors after harmaline administration (score), Mean ± S.E.M.: 1.1 ± 0.3 score
30 mg/kg i.p. 30 min before harmaline (20 mg/kg i.p.), +90 min
  Intensity of tremors after harmaline administration (score), Mean ± S.E.M.: 1.4 ± 0.3 score
30 mg/kg i.p. 30 min before harmaline (20 mg/kg i.p.), +120 min
  Intensity of tremors after harmaline administration (score), Mean ± S.E.M.: 1.2 ± 0.2 score
Given at 3, 10 and 30 mg/kg
  intensity of harmaline-induced tremors (in words): reduced the intensity of harmaline-induced tremors in a dose dependent manner
Highest dose tested (30 mg/kg) versus propranolol 20 mg/kg
  maximal efficacy on tremor intensity compared with propranolol (in words): higher than that of the positive reference compound propranolol
rats, summary statement
  intensity of harmaline-induced tremor (in words): reduced
  latency of tremor onset following harmaline injection (in words): markedly increased
  total duration of harmaline-induced tremor (in words): reduced
